This is an account of results in patent US5808109A, “Compounds that inhibit complement and/or suppress immune activity” (T Cell Sciences, Inc., priority 1995, dated 1998).

The subject of this assay is interleukin-2 receptor (IL-2R) release. As to the kind of experiment: IL-2R release into supernatant of stimulated PBL cultures (enzyme immunoassay). In kind it is cell-based, human. The note with it: stimulated PBL cultures (FIG. 6). The method, then:
Release of cell surface interleukin-2 receptor (IL-2R) or CD8 antigen from lymphocytes is a correlate of T cell activation (Rubin et al. J. Immunol. 1985, 135, 3172-77; Rubin et al. Fed. proc. 1985 44, 946; Fujimoto, J. et al. J. Exp. Med. 1983, 159, 752-66; Tomkinson, B. et al. 2d Annual Conference on Clinical Immunol. Washington, D.C., Oct. 30, 1987). In some experiments, the level of IL-2R or CD8 protein released into the supernatant of the PBL cultures was assessed by removing aliquots therefrom just prior to pulsing with ^3 H-thymidine. Commercially available enzyme immunoassay kits (CELLFREE™ IL-2R, Cat. No. CK1020, T Cell Sciences, Inc., Cambridge, Mass., or CELL-FREE™ T8/CD8, Cat. No. CK1040, T Cell Sciences) were used to determine the levels of the two analytes.

Take `COc1ccc(C(=O)O)c2c1CC1(CCCCC1)O2` [Compound 11a, 7-carboxy-4-methoxyspiro[benzofuran-2(3H)-cyclohexane]]: the IL-2R protein release entry is “inhibitor”.
